The text below walks through data of article PMC6034706 (ChemMedChem, 2017).

Where two headings read alike, the source gives them in different places.

Data set [1] concerns the target T1, VIM2 (Escherichia coli, UniProt Q5U7L7). The class given is biochemical, P. aeruginosa. As to conditions: 50 μM compound, 5 nM VIM-2, 10 μM nitrocefin, 30 mins.
For data set [2], the target named is T1, VIM2. Kind of data set: biochemical. The class given is biochemical, P. aeruginosa. The following applies: for IC50: 5 nM VIM-2, 10 μM nitrocefin.
The next data set deals with E. coli. The data set can be described thus: Cell viability assay, bacterial growth. The format is cell-based. As to conditions: for relative percentage growth, E. coli, Amox (−): compound alone; for relative percentage growth, E. coli, Amox (−) / relative percentage growth, E. coli, Amox (+): relative to untreated cells; for growth inhibition activity on its own: wild-type E. coli, without amoxicillin; for relative percentage growth, E. coli, Amox (+): with 50 μM amoxicillin.

A further data set deals with VIM2 expressing E. coli. The format is cell-based. The following applies: for growth inhibition activity on its own: VIM2-expressing E. coli, without amoxicillin; for relative percentage growth, VIM2 expressing E. coli, Amox (−): compound alone; for relative percentage growth, VIM2 expressing E. coli, Amox (−) / relative percentage growth, VIM2 expressing E. coli, Amox (+): relative to untreated cells; for relative percentage growth, VIM2 expressing E. coli, Amox (+): with 50 μM amoxicillin.

The test system of a further data set is VIM-2 expressing E. coli. Kind of data set: Half maximal effective concentration. The format is cell-based. As to conditions: in the presence of 50 μM amoxicillin.
Data set [3] in a line: Plasma stability study, human plasma. The format is in vitro ADME. As to conditions: 10 μM, 37 °C, pooled plasma.
The nature of data set [4]: Plasma stability study, mouse plasma. The format is in vitro ADME. The following applies: 10 μM, 37 °C, pooled plasma.
Data set [5] deals with human embryonic kidney HEK 293 cell lines. The following applies: cited from earlier work.
The next data set has as its system all eleven HDACs. The following applies: earlier studies ref [10]; cited from earlier work.
Data set [6] has as its system O=C(Cc1cccs1)N[C@@H]1C(=O)N2C(C(=O)O)=C(/C=C/c3ccc([N+](=O)[O-])cc3[N+](=O)[O-])CS[C@H]12. Kind of data set: purified protein, by the assay type. The following applies: other: 50 mM potassium phosphate buffer, pH 7.0, room temperature.
In data set [7] the target is T1, VIM2. Further details: species or system P. aeruginosa. The following applies: 6 and 12 μM inhibitor, 6 μM VIM-2, ICP-AES.
Setting [8] is: competitive-inhibition fit, nitrocefin substrate.

As for `O=C(O)c1cccc(=S)n1O` [Compound 3, 1-hydroxypyridine-2(1H)-thiones-6-carboxylic acid], on VIM2 [1], the “% Inhibition at 50 μM” value came to 98%. Besides, on VIM2 [2], the Ki was determined as 0.013 nM and inhibition was half-maximal at 270 nM (IC50). Besides, on VIM2 [2] (LE = -1.38 log (Ki) / N, N = number of heavy atoms), the “LE (ligand efficiency)” value amounted to 0.99. The molecule further gave a Ki on VIM2 [2] (setting [8]) of 13 nM. Further, in the data set on E. coli, the “relative percentage growth, E. coli, Amox (−)” value came out at 77%; the “growth inhibition activity on its own” value was “moderate antibacterial activity”; the “relative percentage growth, E. coli, Amox (+)” value is given as 3.6%. In addition, in the data set with VIM2 expressing E. coli, the “growth inhibition activity on its own” value is recorded as “moderate antibacterial activity”; the “relative percentage growth, VIM2 expressing E. coli, Amox (−)” value was 61%; the “relative percentage growth, VIM2 expressing E. coli, Amox (+)” value stood at 3.2%. Also, the EC50 with VIM-2 expressing E. coli was found to be 110 nM. In addition, the “Human Plasma t1/2” value in data set [3] worked out at 11.7 min. In data set [4], the “Mouse Plasma t1/2” value is 12.7 min. Besides, the CC50 in data set [5] was 97400 nM. In addition, the “range of selectivity among HDACs” value in the data set with all eleven HDACs is given as ~5000 fold.

On to VIM-2 (Escherichia coli), for which the kcat in data set [6] came to 212 s⁻¹.

In the case of `[Na+].[O-]n1ccccc1=S` [Compound 2b], on VIM2 [1], the “% Inhibition at 50 μM” value is 93%. This molecule also had an IC50 against VIM2 [2] of 908 nM. Further, the Ki at VIM2 [2] (setting [8]) turned out to be 217 nM.

For `O=C(O)[C@H]1/C(=C/CO)O[C@@H]2CC(=O)N21` [Clavulanate], the “% Inhibition at 50 μM” value at VIM2 [1] came out at 15%. Moreover, the “relative percentage growth, VIM2 expressing E. coli, Amox (+)” value in the data set with VIM2 expressing E. coli (listed as clavulanic acid) is listed as “ineffective”.

Regarding `C[C@]1(Cn2ccnn2)[C@H](C(=O)O)N2C(=O)C[C@H]2S1(=O)=O` [Tazobactam], the “% Inhibition at 50 μM” value on VIM2 [1] is recorded as 25%.

With `C[C@H](CS)C(=O)N1CCC[C@H]1C(=O)O` [L-Captopril], the “% Inhibition at 50 μM” value on VIM2 [1] was found to be 98%. Moreover, the “growth inhibition activity on its own” value with E. coli and with VIM2 expressing E. coli was “moderate antibacterial activity” in each case. For the same molecule, on VIM2 [7], the “metal content of VIM-2 with increasing inhibitor concentration” value is reported as “relatively unaffected”.

Take `O=C(CCCCCCC(=O)Nc1ccccc1)NO` [SAHA]: in the data set on E. coli, the “relative percentage growth, E. coli, Amox (−)” value was determined as 83% and the “relative percentage growth, E. coli, Amox (+)” value was 3.6%. In the data set on VIM2 expressing E. coli, the “relative percentage growth, VIM2 expressing E. coli, Amox (−)” value was 79% and the “relative percentage growth, VIM2 expressing E. coli, Amox (+)” value was 60%.

In the case of `CC1(C)S[C@@H]2[C@H](NC(=O)[C@H](N)c3ccc(O)cc3)C(=O)N2[C@H]1C(=O)O` [Amox, amoxicillin], the inhibition at 50 µM in the data set with E. coli (Escherichia coli, read-out: growth inhibition by amoxicillin alone) was > 96%. The “relative percentage growth, E. coli, Amox (+)” value in the data set on E. coli is listed as 3.6%. In addition, the entries for the “relative percentage growth, VIM2 expressing E. coli, Amox (+)” value in the data set on VIM2 expressing E. coli and in the data set on VIM2 expressing E. coli (listed as amoxicillin) were 77% and “ineffective”, respectively.

As to `On1ccccc1=S` [Compound 2, 1-Hydroxypyridine-2-thione], the Ki at VIM2 [2] came out at 217 nM. The “growth inhibition activity on its own” value in the data set on E. coli and with VIM2 expressing E. coli was “over 89%” in each case.

As for `O=C(O)CN(CCN(CC(=O)O)CC(=O)O)CC(=O)O` [EDTA], on VIM2 [7], the “metal content of VIM-2 with increasing inhibitor concentration” value is “inverse relationship”.

As usually defined, the % Inhibition is the percentage by which the read-out fell short of the control. A lower % Inhibition goes with a weak effect. What is called Ki is a dissociation constant, usually derived from enzyme kinetics or from competition with a known ligand. High values mean lower affinity, low ones higher affinity. What is called IC50 is the point on the concentration scale where inhibition reaches its midpoint. One may read the EC50 as the concentration giving half of the maximal effect. Usually CC50 stands for the concentration giving 50% cytotoxicity. One may read the kcat as the number of substrate molecules converted per active site and unit of time at saturation. What is called inhibition is the share of the control response that was lost under treatment.
